The bioavailability is the share of a dose that reaches the circulation, judged against a reference dose that is usually intravenous. Low readings indicate poor availability, high ones good availability.

Results on two compounds are retold here after patent publication US20080221135A1, “COMBINATION THERAPY” (Bristol-Myers Squibb Company, priority 2005, published 2008).

The structures appear in SMILES notation.

Data set [1] in a line: oral bioavailability in rats. The data set is classed as in vivo. The conditions noted are these: rat.
The nature of data set [2]: oral bioavailability in dog. The data set is classed as in vivo.
Data set [3] is described as follows: oral bioavailability in humans. The conditions noted are these: human, in vivo, 45% coefficient of variation.
Data set [4] relates to tumor. Nature of the data set: preclinical anti-tumor activity. It counts as in vivo. The conditions noted are these: oral Compound I versus I.V. paclitaxel.
Data set [5] deals with tumor. In words: Phase I data, Compound I single agent. The data set is classed as in vivo, humans.
The test system of data set [6] is NSCLC. Nature of the data set: single-agent treatment of NSCLC patients. It counts as in vivo, humans. To be noted: Compound I.
The test system of data set [7] is NSCLC. The conditions noted are these: chemo-naive or pre-treated NSCLC; cited from earlier work.
In data set [8] the test system is variety of tumor types, including NSCLC. To be noted: cited from earlier work.

With `COC(=O)O[C@@]12CO[C@@H]1C[C@H](O)[C@@]1(C)C(=O)[C@H](OC(C)=O)C3=C(C)[C@@H](OC(=O)[C@H](O)[C@@H](NC(=O)OC(C)(C)C)C(C)(C)C)C[C@@](O)([C@@H](OC(=O)c4ccccc4)[C@H]21)C3(C)C` [Compound I, 3′-tert-butyl-3′-N-tert-butyloxycarbonyl-4-deacetyl-3′-dephenyl-3′-N-debenzoyl-4-O-methoxycarbonyl-paclitaxel], the oral bioavailability result in data set [1] and in data set [2] was “good oral bioavailability” each time. The compound also displayed a bioavailability in data set [3] of 24%. Besides, the preclinical anti-tumor activity entry in the data set with tumor [4] is given as “comparable to intravenous (I.V.) paclitaxel”. For the same compound, the anti-tumor activity result in the data set on tumor [5] (continuous weekly schedule, doses of 120 mg/m^2 and higher) is “shows anti-tumor activity”. The tolerability entry with tumor [5] (doses of 120 and 200 mg/m^2) is given as “acceptable”. Moreover, the dose limiting toxicities entry with tumor [5] (twice weekly schedule, doses of 60 mg/m^2 and higher, versus weekly schedule) is given as “may reduce dose limiting toxicities”. Further, in the data set on NSCLC [6], the “activity in treatment of pre-treated NSCLC” value was “promising early signs of activity”. In the data set on NSCLC [6] (pre-treated NSCLC), the main toxicity entry was “transient, manageable neuropathy”.
In the case of `Nc1nc2[nH]cc(CCc3ccc(C(=O)N[C@@H](CCC(=O)O)C(=O)O)cc3)c2c(=O)[nH]1` [Pemetrexed], in the data set with NSCLC [7], the “activity in treatment of NSCLC” value is “single-agent activity” and the tolerability profile result was “acceptable tolerability profile”. For the same compound, the “anti-tumor activity in pre-clinical models” value in data set [8] was “has shown anti-tumor activity”.
